Source: the supplement of paper PMC10307832

Tests used:
Assay in all cases: relative viability (nuclei count vs DMSO), 5 days (fraction); higher = more cells survive
[1] = compound: C#Cc1cccc(Nc2ncnc3cc(OC)c(OCCCCCCC(=O)NO)cc23)c1 [CUDC-101] + Cc1nc(NC(=O)N2CCC[C@H]2C(N)=O)sc1-c1ccnc(C(C)(C)C(F)(F)F)c1 [Alpelisib] (partner 2 µM)
Method in brief: (§1)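 Each reported value is a median over duplicate plates. It expresses relative viability: treated-well nuclei count divided by vehicle-well nuclei count. Lung cancer cell lines in 1536-well plates were dosed by pin tool a day after seeding, alone with one drug or with a fixed anchor-drug dose plus five library-drug doses (not always all listed) in √10 steps, and nuclei were counted after 5 days.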

[2] = compound: C#Cc1cccc(Nc2ncnc3cc(OC)c(OCCCCCCC(=O)NO)cc23)c1 [CUDC-101] + NC(=O)Nc1cc(-c2cccc(F)c2)sc1C(=O)N[C@H]1CCCNC1 [AZD7762] (partner 0.2 µM)
Method in brief: as §1

[3] = compound: COc1cc(N2CCC(N3CCN(C)CC3)CC2)ccc1Nc1ncc(Cl)c(Nc2ccccc2S(=O)(=O)C(C)C)n1 [NVP-TAE684] + C[C@]1(O)C[C@@H](c2nc(-c3ccc4ccc(-c5ccccc5)nc4c3)c3c(N)nccn32)C1 [Linsitinib] (partner 1 µM)
Method in brief: as §1

[4] = compound: COc1cc(N2CCC(N3CCN(C)CC3)CC2)ccc1Nc1ncc(Cl)c(Nc2ccccc2S(=O)(=O)C(C)C)n1 [NVP-TAE684] + Cc1cc(Nc2cc(N3CCN(C)CC3)nc(Sc3ccc(NC(=O)C4CC4)cc3)n2)n[nH]1 [Tozasertib] (partner 0.1 µM)
Method in brief: as §1

[5] = compound: COc1cc(N2CCC(N3CCN(C)CC3)CC2)ccc1Nc1ncc(Cl)c(Nc2ccccc2S(=O)(=O)C(C)C)n1 [NVP-TAE684] + Nc1nc2[nH]cc(CCc3ccc(C(=O)N[C@@H](CCC(=O)O)C(=O)O)cc3)c2c(=O)[nH]1 [Pemetrexed] (partner 0.2 µM)
Method in brief: as §1

RERF-LC-KJ
relative viability ([1]; first compound 0.01 µM): 0.795 | relative viability ([1]; first compound 0.03162 µM): 0.835 | relative viability ([1]; first compound 0.1 µM): 0.828 | relative viability ([1]; first compound 0.3162 µM): 0.835 | relative viability ([1]; first compound 1 µM): 0.742 | relative viability ([2]; first compound 0.01 µM): 1.01 | relative viability ([2]; first compound 0.03162 µM): 0.971 | relative viability ([2]; first compound 0.1 µM): 1.18 | relative viability ([2]; first compound 0.3162 µM): 0.922 | relative viability ([2]; first compound 1 µM): 0.608 | relative viability ([3]; first compound 0.2 µM): 0.921 | relative viability ([3]; first compound 0.6325 µM): 1.01 | relative viability ([4]; first compound 0.2 µM): 0.469 | relative viability ([4]; first compound 0.6325 µM): 0.488 | relative viability ([4]; first compound 2 µM): 0.268 | relative viability ([5]; first compound 0.2 µM): 0.484 | relative viability ([5]; first compound 0.6325 µM): 0.489 | relative viability ([5]; first compound 2 µM): 0.431

NCI-H1975
relative viability ([1]; first compound 0.01 µM): 0.714 | relative viability ([1]; first compound 0.03162 µM): 0.634 | relative viability ([1]; first compound 0.1 µM): 0.686 | relative viability ([1]; first compound 0.3162 µM): 0.673 | relative viability ([1]; first compound 1 µM): 0.538 | relative viability ([2]; first compound 0.01 µM): 0.749 | relative viability ([2]; first compound 0.03162 µM): 0.743 | relative viability ([2]; first compound 0.1 µM): 0.665 | relative viability ([2]; first compound 0.3162 µM): 0.761 | relative viability ([2]; first compound 1 µM): 0.722 | relative viability ([3]; first compound 0.2 µM): 1.01 | relative viability ([3]; first compound 0.6325 µM): 0.97 | relative viability ([3]; first compound 2 µM): 0.269 | relative viability ([4]; first compound 0.2 µM): 1.01 | relative viability ([4]; first compound 0.6325 µM): 0.732 | relative viability ([4]; first compound 2 µM): 0.206 | relative viability ([5]; first compound 0.2 µM): 0.297 | relative viability ([5]; first compound 0.6325 µM): 0.283 | relative viability ([5]; first compound 2 µM): 0.236

PC-3 [JPC-3]
relative viability ([1]; first compound 0.01 µM): 1.04 | relative viability ([1]; first compound 0.03162 µM): 0.999 | relative viability ([1]; first compound 0.1 µM): 0.775 | relative viability ([1]; first compound 0.3162 µM): 0.683 | relative viability ([1]; first compound 1 µM): 0.307 | relative viability ([2]; first compound 0.01 µM): 0.731 | relative viability ([2]; first compound 0.03162 µM): 0.752 | relative viability ([2]; first compound 0.1 µM): 0.65 | relative viability ([2]; first compound 0.3162 µM): 0.538 | relative viability ([2]; first compound 1 µM): 0.361 | relative viability ([3]; first compound 0.2 µM): 0.96 | relative viability ([3]; first compound 0.6325 µM): 0.934 | relative viability ([3]; first compound 2 µM): 0.843 | relative viability ([4]; first compound 0.2 µM): 0.926 | relative viability ([4]; first compound 0.6325 µM): 0.86 | relative viability ([4]; first compound 2 µM): 0.584 | relative viability ([5]; first compound 0.2 µM): 1.16 | relative viability ([5]; first compound 0.6325 µM): 1.08 | relative viability ([5]; first compound 2 µM): 0.903

EPLC-272H
relative viability ([1]; first compound 0.01 µM): 0.985 | relative viability ([1]; first compound 0.03162 µM): 0.887 | relative viability ([1]; first compound 0.1 µM): 0.92 | relative viability ([1]; first compound 0.3162 µM): 0.926 | relative viability ([1]; first compound 1 µM): 0.845 | relative viability ([2]; first compound 0.01 µM): 0.187 | relative viability ([2]; first compound 0.03162 µM): 0.139 | relative viability ([2]; first compound 0.1 µM): 0.175 | relative viability ([2]; first compound 0.3162 µM): 0.109 | relative viability ([2]; first compound 1 µM): 0.115 | relative viability ([3]; first compound 0.2 µM): 1.08 | relative viability ([3]; first compound 2 µM): 1.3 | relative viability ([4]; first compound 0.2 µM): 0.25 | relative viability ([4]; first compound 0.6325 µM): 0.21 | relative viability ([4]; first compound 2 µM): 0.103 | relative viability ([5]; first compound 0.2 µM): 0.425 | relative viability ([5]; first compound 0.6325 µM): 0.297 | relative viability ([5]; first compound 2 µM): 0.15
